According to ChEMBL document CHEMBL6103573, “Discovery of novel thienopyridine indole derivatives as inhibitors of tubulin polymerization targeting the colchicine-binding site with potent anticancer activities” (Eur J Med Chem, 2025):
Active and inactive are the calls of the source. The rule behind the calls is not given here.

How the values were obtained:
[1] = test system: HCT-116; experiment: Antiproliferative activity against human HCT-116 cells assessed as inhibition of cell proliferation incubated for 48 hrs by MTT assay; assay type: functional, cell-based; details: HCT-116, 48 h
[2] = test system: MDA-MB-231; experiment: Antiproliferative activity against human MDA-MB-231 cells assessed as inhibition of cell proliferation incubated for 48 hrs by MTT assay; assay type: functional, cell-based; details: MDA-MB-231, 48 h
[3] = test system: HGC-27; experiment: Antiproliferative activity against human HGC-27 cells assessed as survival rate at 2 nmol/L measured after 48 hrs by MTT assay relative to control; assay type: functional; details: read-out: Survival
[4] = target: Tubulin beta (Homo sapiens) (UniProt P68371+Q9H4B7+Q13509+P04350+Q3ZCM7+P07437+Q13885+Q9BVA1+Q9BUF5+A6NNZ2); experiment: Competitive binding affinity to beta-tubulin colchicine binding site in human HGC-27 cells assessed as inhibition of EBI-beta-tubulin adduct band formation at 1 umol/L preincubated for 2 hrs followed by EBI addition and measured after 2 hrs by Western blotting analysis; assay type: cell-based; details: dose 1.0 µmol/L, time 4.0 hrs
[5] = target: T1, Tubulin (Homo sapiens) (UniProt P68371+Q9H4B7+P0DPH7+P68366+Q13509+Q71U36+P04350+Q3ZCM7+P07437+P68363+Q9BQE3+Q6PEY2+Q13885+Q9BVA1+Q9BUF5); experiment: Disruption of microtubule network in human MGC-803 cells assessed as disruption of mitosis at 0.25 to 2.0 nmol/L incubated for 24 hrs by DAPI staining based fluorescence microscopic analysis; assay type: cell-based; details: dose 0.25-2 nmol/L
[6] = target: T1, Tubulin (Homo sapiens); experiment: Disruption of microtubule network in human HGC-27 cells assessed as disruption of mitosis at 0.25 to 2.0 nmol/L incubated for 24 hrs by DAPI staining based fluorescence microscopic analysis; assay type: cell-based; details: dose 0.25-2 nmol/L
[7] = target: T1, Tubulin (Homo sapiens); experiment: Disruption of microtubule network in human HGC-27 cells assessed as reduction in filamentous microtubule structure formation at 0.25 to 2.0 nmol/L incubated for 24 hrs by DAPI staining based fluorescence microscopic analysis; assay type: cell-based; details: dose 0.25-2 nmol/L
[8] = test system: HGC-27; experiment: Antiproliferative activity against human HGC-27 cells by MTT assay; assay type: functional, cell-based; details: dose 0.25-2 nmol/L
[9] = test system: MGC-803; experiment: Induction of cell cycle arrest in human MGC-803 cells assessed as accumulation of cells at G2/M phase incubated for 24 hrs by RNase A/propidium iodide staining based flow cytometric analysis; assay type: functional; details: dose 0.25-2 nmol/L
[10] = test system: HGC-27; experiment: Induction of cell cycle arrest in human HGC-27 cells assessed as accumulation of cells at G2/M phase incubated for 24 hrs by RNase A/propidium iodide staining based flow cytometric analysis; assay type: functional; details: dose 0.25-2 nmol/L
[11] = test system: HGC-27; experiment: Induction of cell cycle arrest in human HGC-27 cells assessed as accumulation of cells at G2/M phase at 2 nmol/L incubated for 24 hrs by RNase A/propidium iodide staining based flow cytometric analysis relative to control; assay type: functional
[12] = test system: MGC-803; experiment: Induction of cell cycle arrest in human MGC-803 cells assessed as downregulation of Cdc25c level measured after 48 hrs by Western blot analysis; assay type: functional, cell-based; details: dose 0.25-2 nmol/L
[13] = test system: HGC-27; experiment: Induction of cell cycle arrest in human HGC-27 cells assessed as downregulation of Cdc25c level measured after 48 hrs by Western blot analysis; assay type: functional, cell-based; details: dose 0.25-2 nmol/L
[14] = test system: HGC-27; experiment: Induction of cell cycle arrest at G2 phase in human HGC-27 cells assessed as downregulation of Cyclin B1 level at 0.25 to 2.0 nmol/L measured after 48 hrs by Western blot analysis; assay type: functional, cell-based; details: dose 0.25-2 nmol/L
[15] = test system: MGC-803; experiment: Induction of cell cycle arrest at G2 phase in human MGC-803 cells assessed as increase in p-Histone H3 level at 0.25 to 2.0 nmol/L measured after 48 hrs by Western blot analysis; assay type: functional, cell-based; details: dose 0.25-2 nmol/L
[16] = test system: MGC-803; experiment: Induction of apoptosis in human MGC-803 cells assessed as appearance of bright cells at 0.25 to 2.0 nmol/L incubated for 48 hrs by bright field microscopic analysis; assay type: functional, cell-based; details: dose 0.25-2 nmol/L
[17] = test system: MGC-803; experiment: Induction of apoptosis in human MGC-803 cells assessed as increase in dead to live cells ratio at 0.25 to 2.0 nmol/L incubated for 48 hrs by Calcein-AM/PI staining based analysis; assay type: functional, cell-based; details: dose 0.25-2 nmol/L
[18] = test system: HGC-27; experiment: Induction of apoptosis in human HGC-27 cells assessed as cell contraction at 0.25 to 2.0 nmol/L incubated for 48 hrs by bright field microscopic analysis; assay type: functional, cell-based; details: dose 0.25-2 nmol/L
[19] = test system: HGC-27; experiment: Induction of apoptosis in human HGC-27 cells assessed as appearance of bright cells at 0.25 to 2.0 nmol/L incubated for 48 hrs by bright field microscopic analysis; assay type: functional, cell-based; details: dose 0.25-2 nmol/L
[20] = test system: HGC-27; experiment: Induction of apoptosis in human HGC-27 cells assessed as nuclei shrinkage at 0.25 to 2.0 nmol/L incubated for 48 hrs by DAPI staining based analysis; assay type: functional, cell-based; details: dose 0.25-2 nmol/L
[21] = test system: HGC-27; experiment: Induction of apoptosis in human HGC-27 cells assessed as downregulation of Bcl-2 expression incubated for 48 hrs by Western blotting analysis; assay type: functional, cell-based; details: dose 0.25-2 nmol/L
[22] = test system: MGC-803; experiment: Induction of apoptosis in human MGC-803 cells assessed as increase in cleaved Caspase-3 expression at 0.25 to 2.0 nmol/L incubated for 48 hrs by Western blotting analysis; assay type: functional, cell-based; details: dose 0.25-2 nmol/L
[23] = test system: MGC-803; experiment: Induction of apoptosis in human MGC-803 cells assessed as increase in cleaved Caspase-7 expression at 0.25 to 2.0 nmol/L incubated for 48 hrs by Western blotting analysis; assay type: functional, cell-based; details: dose 0.25-2 nmol/L
[24] = test system: MGC-803; experiment: Induction of apoptosis in human MGC-803 cells assessed as late apoptotic cells at 1.0 nmol/L incubated for 48 hrs by Annexin V-FITC/propidium iodide staining based flow cytometry analysis (reference value: 2.22 %); assay type: functional
[25] = test system: MGC-803; experiment: Induction of apoptosis in human MGC-803 cells incubated for 48 hrs by Annexin V-FITC/propidium iodide staining based flow cytometry analysis; assay type: functional, cell-based; details: dose 0.25-2 nmol/L
[26] = test system: HUVEC; experiment: Anti-angiogenesis activity in HUVEC cells assessed as reduction in cell viability by measuring survival rate at 2 nmol/L incubated for 48 hrs by MTT assay relative to control; assay type: functional; details: Homo sapiens, read-out: Survival
[27] = test system: HUVEC; experiment: Anti-migratory activity against HUVEC cells assessed as wound healing rate at 1 nmol/L measured after 24 hrs by wound healing assay (reference value: 97 %); assay type: functional, Homo sapiens
[28] = test system: HUVEC; experiment: Anti-vascular activity in HUVEC cells assessed as reduction in width of tubular network incubated for 5 hrs by Matrigel based inverted microscopic analysis; assay type: functional, cell-based; details: Homo sapiens, dose 0.5-2 nmol/L
[29] = Toxicity in female BALB/c-nu nude mouse xenografted with human MGC-803 cells assessed as change in heart morphology at 5 mg/kg, po administrated every other day for 11 times and measured after 21 days by hematoxylin and eosin staining based analysis; assay type: organism-based; details: in vivo, 504 h, time 21 day
[30] = Toxicity in female BALB/c-nu nude mouse xenografted with human MGC-803 cells assessed as change in kidney morphology at 5 mg/kg, po administrated every other day for 11 times and measured after 21 days by hematoxylin and eosin staining based analysis; assay type: organism-based; details: in vivo, 504 h, time 21 day
[31] = test system: MGC-803; experiment: Antitumor activity against human MGC-803 cells xenografted in female BALB/c-nu nude mouse assessed as increase in cleaved PARP level in tumor at 5 mg/kg, po administrated […] for 11 times and measured after 21 days by immunohistochemical analysis; assay type: functional, organism-based; details: time 21.0 day
[32] = test system: MGC-803; experiment: Antitumor activity against human MGC-803 cells xenografted in female BALB/c-nu nude mouse assessed as increase in p-Histone H3 level in tumor at 5 mg/kg, po administrated every other day for 11 times and measured after 21 days by immunohistochemical analysis; assay type: functional, organism-based; details: time 21.0 day

SMILES: CN(c1ccc2c(ccn2C)c1)c1nc(N2CCCC2)nc2sccc12
- IC50 [1]: 2.89 nM
- IC50 [2]: 2.58 nM
- viability at 0.002 µM [3]: 48%
- Activity [4]: Active; Stronger Affinity Observed
- Activity [5]: Active
- Activity [6]: Active
- Activity [7]: Active
- Activity [8]: Dose-dependent-effect
- Activity [9]: Dose-dependent-effect
- Activity [10]: Dose-dependent-effect
- Activity [11]: 43.9%
- Activity [12]: Dose-dependent-effect
- Activity [13]: Dose-dependent-effect
- Activity [14]: Active
- Activity [15]: Active
- Activity [16]: Active
- Activity [17]: Active
- Activity [18]: Active
- Activity [19]: Active
- Activity [20]: Active
- Activity [21]: Dose-dependent-effect
- Activity [22]: Active
- Activity [23]: Active
- Activity [24]: 3.78%
- Activity [25]: Dose-dependent-effect
- viability at 0.002 µM [26]: 28.3%
- Activity [27]: 58%
- Activity [28]: Dose-dependent-effect
- Activity [29]: Non-toxic
- Activity [30]: Non-toxic
- Activity [31]: Active
- Activity [32]: Active
